Results taken from patent US4189499A, “Lysine 4-allyloxy-3-chlorophenylacetate and method of its preparation” (priority 1979, dated 1980).
Where “and” joins values, the source holds several entries; their conditions need not be identical. Identical values can stand only once. Entries after “also recorded” stand apart in the source; their conditions may differ. Like-named read-outs stand apart in the source and are kept apart here.

What was measured:
[1] = Analgesic, antipyretic and antiinflammatory activity; assay type: in vivo; settings: versus the starting acid
[2] = General tolerability by route of administration; assay type: in vivo
[3] = test system: rat leg; assay: Tolerability by volume increase of rat leg versus commercial injectable preparations; assay type: in vivo; settings: FIG. 1
Text: This type of preparation was estimated also in comparison with commercially available injectable preparations according to the method of volume increase of rat leg and results are shown in FIG. 1 of the drawings.

[4] = test system: rabbit dorsal long muscle; assay: Local tolerability after intramuscular injection, muscle removed at 24 hours, irritation by arbitrary scores; assay type: in vivo; design: scale not given here
Method: Such a tolerability was estimated after injection of equivalent solutions of the various preparations, effected in the rabbit dorsal long muscle, removing muscle 24 hours after injection and estimating the degree of induced irritation through arbitrary scores.

[5] = Solubility; assay type: physicochemical; settings: in words, solvent as stated
[6] = pH of aqueous solution; assay type: physicochemical
[7] = Pharmacokinetics from plasma levels after oral, rectal and intramuscular administration in rabbits; assay type: in vivo, rabbit
Method: (§1) The following pharmacological experimentation was carried out in order to estimate the comparative absorption and bioavailability through various administration routes in rabbits of Alclofenac acid and its lysine salt.

[8] = Extent of availability after different routes, intravenous administration as reference; assay type: in vivo, rabbit
Method: as §1

[9] = Stability and hygroscopicity; assay type: physicochemical
[10] = Pharmacokinetics after i.v. injection in rabbits; assay type: in vivo, rabbit; settings: i.v. 90 mg/kg (as acid)
Method: as §1

[11] = 100 mg/ml (as acid), 0.5 ml injected
[12] = 131 mg/ml (as acid), 0.25 ml injected
[13] = INTRAMUSCOLAR 80 mg/kg, ± E.S.M.
[14] = P.OS 90 mg/kg, ± E.S.M., listed as Lysine Salt
[15] = P.OS 90 mg/kg, ± E.S.M., listed as Lysine Salt, 90 mg/kg
[16] = RECTAL 100 mg/kg, ± E.S.M., listed as Lysine Salt
[17] = RECTAL 100 mg/kg, ± E.S.M., listed as Lysine Salt, 100 mg/kg
[18] = rabbit, plasma, im, 80 mg/kg, INTRAMUSCOLAR 80 mg/kg, ± E.S.M.
[19] = individual, in order Rabbit I, II, III, IV, 90 mg/kg

With `C=CCOc1ccc(CC(=O)O)cc1Cl` [Alclofenac-Lysine, lysine 4-allyloxy-3-chlorophenylacetate] as the molecule, how does the “analgesic, antipyretic and antiinflammatory properties” value [1] read?
The value was “equal or even superior to those of the starting acid”.

What about the tolerability on injection ([2]; intravenous or intramuscular) of the same molecule?
The tolerability on injection was “well tolerated after either intravenous or intramuscular administration”.

And the tolerability per os ([2]; oral)?
Its tolerability per os is “better tolerated per os; also recorded: better tolerance”.

What about the “tolerability versus Mervan” value [3] of the same molecule?
Its value is “better more tolerated than a commercially available preparation”.

What about the “SCORES at 24 hours, Average” value [4, 11] of the same molecule?
The value was 2.3.

And the “SCORES at 24 hours, Average” value [4, 12]?
The value was 2.6.

What about the “SCORES at 24 hours, individual” value [4, 11] of the same molecule?
The value was 2 (2×) and 3.

What about the “SCORES at 24 hours, individual” value [4, 12] of the same molecule?
The value was 2 and 3 and 4 (2×) and 0.

What about the Solubility [5] of the same molecule?
Its Solubility is “soluble in biological fluids; also recorded: extremely soluble in water and alcohols; also recorded: insoluble in acetone”.

And the Solubility ([5]; listed as compound (1))?
The Solubility was “very soluble in water and alcohols; also recorded: insoluble in acetone”.

What about the “pH value of the 10% aqueous solution” value ([6]; 10% aqueous solution) of the same molecule?
Its value is 7.7.

What about the “pH of 25% parts/volume aqueous solution” value ([6]; 25% parts/volume, specification) of the same molecule?
Its value is 7.4-7.8.

What about the Ka [7, 13] of the same molecule?
The Ka was 0.0131 ± 0.0031 min⁻¹.

And the t1/2α [7, 13]?
Its t1/2α is 60 ± 11 min.

What about the Ka [7, 14] of the same molecule?
Its Ka is 0.0174 ± 0.0047 min⁻¹.

And the t1/2α [7, 14]?
The t1/2α was 37.0000 ± 8.0000 min.

And the Cmax [7, 15]?
Its Cmax is 454.5 ± 152.2 µg/mL.

What about the Kel [7, 15] of the same molecule?
Its Kel is 0.0023 ± 0.0005 min⁻¹.

What about the Tmax [7, 15] of the same molecule?
The Tmax was 131 ± 28 min.

And the Vdβ [7, 15]?
Its Vdβ is 0.301 ± 0.050 L/kg.

And the t1/2β [7, 15]?
Its t1/2β is 377 ± 92 min.

And the Ka [7, 16]?
Its Ka is 0.132 ± 0.032 min⁻¹.

What about the t1/2α [7, 16] of the same molecule?
The t1/2α was 8 ± 3 min.

What about the CL [7, 17] of the same molecule?
The CL was 0.55 ± 0.03 mL/kg.

What about the Cmax [7, 17] of the same molecule?
Its Cmax is 473.7 ± 24.1 µg/mL.

What about the Kel [7, 17] of the same molecule?
Its Kel is 0.0026 ± 0.0004 min⁻¹.

And the Tmax [7, 17]?
Its Tmax is 39 ± 11 min.

And the Vdβ [7, 17]?
The Vdβ was 0.248 ± 0.072 L/kg.

What about the t1/2β [7, 17] of the same molecule?
Its t1/2β is 268 ± 71 min.

What about the “intramuscular absorption velocity, in words” value ([7]; intramuscular, versus per os) of the same molecule?
Its value is “may be compared with that per os”.

What about the “intramuscular blood levels, in words” value ([7]; intramuscular, versus per os) of the same molecule?
The value was “instantaneous and sustained blood levels are lower”.

And the absorption velocity ([7]; oral and rectal route)?
Its absorption velocity is “higher absorption velocity even through the oral and rectal route”.

What about the “absorption, in words” value ([7]; oral and rectal route, rabbits, listed as Lysine Salt) of the same molecule?
The value was “absorbed faster and to a higher extent in comparison with the acidic substance”.

And the CL/F [7, 18]?
Its CL/F is 0.67 ± 0.06 mL/min/kg.

And the k el [7, 18]?
The k el was 1.17e-05 s⁻¹.

And the Cmax ([7]; rabbit, plasma, im, 80 mg/kg, INTRAMUSCOLAR 80 mg/kg, ± E.S.M., read-out: Cmax)?
The Cmax was 144 ± 30 µg/mL.

And the Vd/F ([7]; rabbit, plasma, im, 80 mg/kg, INTRAMUSCOLAR 80 mg/kg, ± E.S.M., read-out: Vdβ)?
The Vd/F was 0.607 ± 0.09 L/kg.

What about the half-life ([7]; rabbit, plasma, im, 80 mg/kg, INTRAMUSCOLAR 80 mg/kg, ± E.S.M., read-out: t1/2β) of the same molecule?
The half-life was 1410 ± 378 min.

What about the Tmax ([7]; rabbit, plasma, im, 80 mg/kg, INTRAMUSCOLAR 80 mg/kg, ± E.S.M., read-out: tmax (converted)) of the same molecule?
Its Tmax is 277 min.

What about the “% Availability (AUC o → 2h)” value ([8]; I.V. 90 mg/kg, 0-2 h, reference) of the same molecule?
Its value is 100%.

What about the “% Availability (AUC o → 4h)” value ([8]; I.V. 90 mg/kg, 0-4 h, reference) of the same molecule?
The value was 100%.

What about the “% Availability (practical AUC)” value ([8]; I.V. 90 mg/kg, reference) of the same molecule?
The value was 100%.

And the “% Availability (theoretical AUC)” value ([8]; I.V. 90 mg/kg, reference)?
Its value is 100%.

And the bioavailability at 2 h ([8]; rabbit, plasma, 100 mg/kg, Rectal 100 mg/kg, 0-2 h, i.v. as reference, read-out: % Availability (AUC o → 2h))?
The bioavailability at 2 h was 95.7%.

What about the bioavailability ([8]; rabbit, plasma, 100 mg/kg, Rectal 100 mg/kg, i.v. as reference, read-out: % Availability (practical AUC)) of the same molecule?
Its bioavailability is 100%.

What about the bioavailability ([8]; rabbit, plasma, 100 mg/kg, Rectal 100 mg/kg, i.v. as reference, read-out: % Availability (theoretical AUC)) of the same molecule?
Its bioavailability is 89.2%.

What about the bioavailability ([8]; rabbit, plasma, im, 80 mg/kg, I.M. 80 mg/kg, i.v. as reference, read-out: % Availability (practical AUC)) of the same molecule?
Its bioavailability is 95.4%.

What about the bioavailability ([8]; rabbit, plasma, im, 80 mg/kg, I.M. 80 mg/kg, i.v. as reference, read-out: % Availability (theoretical AUC)) of the same molecule?
The bioavailability was 155%.

And the bioavailability at 4 h ([8]; rabbit, plasma, po, 90 mg/kg, P.O. 90 mg/kg, 0-4 h, i.v. as reference, read-out: % Availability (AUC o → 4h))?
Its bioavailability at 4 h is 58.1%.

What about the bioavailability ([8]; rabbit, plasma, po, 90 mg/kg, P.O. 90 mg/kg, i.v. as reference, read-out: % Availability (practical AUC)) of the same molecule?
Its bioavailability is 88.5%.

And the bioavailability ([8]; rabbit, plasma, po, 90 mg/kg, P.O. 90 mg/kg, i.v. as reference, read-out: % Availability (theoretical AUC))?
Its bioavailability is 82.7%.

And the “Stability of the solution” value ([9]; in words, listed as compound (1))?
The value was “perfectly stable”.

And the Hygroscopicity ([9]; isolated solid)?
The Hygroscopicity was “non-hygroscopic”.

And the A ([10]; MEAN ± S.E.M. of 4 rabbits)?
The A was 165.7 ± 16.6 µg/mL.

What about the B ([10]; MEAN ± S.E.M. of 4 rabbits) of the same molecule?
Its B is 293.5 ± 14.2 µg/mL.

What about the K12 ([10]; MEAN ± S.E.M. of 4 rabbits) of the same molecule?
The K12 was 0.027 ± 0.003 min⁻¹.

And the K21 ([10]; MEAN ± S.E.M. of 4 rabbits)?
Its K21 is 0.053 ± 0.009 min⁻¹.

What about the α ([10]; MEAN ± S.E.M. of 4 rabbits) of the same molecule?
Its α is 0.082 ± 0.011 min⁻¹.

And the A [10, 19]?
The A was 170.51 µg/mL and 151.04 µg/mL and 209.59 µg/mL and 131.86 µg/mL.

What about the B [10, 19] of the same molecule?
The B was 269.19 µg/mL and 324.95 µg/mL and 269.89 µg/mL and 310.16 µg/mL.

And the CL [10, 19]?
The CL was 0.56 mL/kg/min and 0.63 mL/kg/min and 0.36 mL/kg/min and 0.74 mL/kg/min.

And the K12 [10, 19]?
The K12 was 0.030 min⁻¹ and 0.034 min⁻¹ and 0.028 min⁻¹ and 0.018 min⁻¹.

And the K21 [10, 19]?
Its K21 is 0.051 min⁻¹ and 0.078 min⁻¹ and 0.038 min⁻¹ and 0.047 min⁻¹.

And the Kel [10, 19]?
Its Kel is 0.0033 min⁻¹ and 0.0019 min⁻¹ and 0.0036 min⁻¹.

And the Vdβ [10, 19]?
Its Vdβ is 0.274 L/kg and 0.329 L/kg and 0.285 L/kg.

What about the t1/2α [10, 19] of the same molecule?
The t1/2α was 6 min and 10.5 min (2×).

And the t1/2β [10, 19]?
The t1/2β was 408 min and 301 min and 630 min and 266 min.

What about the α [10, 19] of the same molecule?
The α was 0.083 min⁻¹ and 0.113 min⁻¹ and 0.067 min⁻¹ and 0.066 min⁻¹.

What about the β [10, 19] of the same molecule?
The β was 0.0017 min⁻¹ and 0.0023 min⁻¹ and 0.0011 min⁻¹ and 0.0026 min⁻¹.

What about the k el ([10]; rabbit, in vivo, iv, 90 mg/kg, MEAN ± S.E.M. of 4 rabbits, read-out: β (converted)) of the same molecule?
Its k el is 3.17e-05 s⁻¹.

And the clearance ([10]; rabbit, plasma, iv, 90 mg/kg, MEAN ± S.E.M. of 4 rabbits)?
The clearance was 0.57 ± 0.08 mL/min/kg.

And the k el ([10]; rabbit, plasma, iv, 90 mg/kg, MEAN ± S.E.M. of 4 rabbits, read-out: Kel (converted))?
The k el was 4.83e-05 s⁻¹.

What about the Vd ([10]; rabbit, plasma, iv, 90 mg/kg, MEAN ± S.E.M. of 4 rabbits, read-out: Vdβ) of the same molecule?
Its Vd is 0.304 ± 0.015 L/kg.

And the half-life ([10]; rabbit, plasma, iv, 90 mg/kg, MEAN ± S.E.M. of 4 rabbits, read-out: t1/2α)?
The half-life was 9 ± 1 min.

And the half-life ([10]; rabbit, plasma, iv, 90 mg/kg, MEAN ± S.E.M. of 4 rabbits, read-out: t1/2β)?
Its half-life is 401 ± 81 min.

And the Vd ([10]; rabbit, plasma, iv, 90 mg/kg, MEAN ± S.E.M. of 4 rabbits, read-out: √1)?
Its Vd is 0.196 ± 0.005 L/kg.

And the Vd ([10]; rabbit, plasma, iv, 90 mg/kg, MEAN ± S.E.M. of 4 rabbits, read-out: √2)?
The Vd was 0.392 ± 0.06 L/kg.

What about the k el ([10]; rabbit, plasma, iv, 90 mg/kg, individual, in order Rabbit I, II, III, IV, read-out: Kel (converted)) of the same molecule?
Its k el is 4.5e-05 s⁻¹.

What about the Vd ([10]; rabbit, plasma, iv, 90 mg/kg, individual, in order Rabbit I, II, III, IV, read-out: Vdβ) of the same molecule?
The Vd was 0.33 L/kg.

And the half-life ([10]; rabbit, plasma, iv, 90 mg/kg, individual, in order Rabbit I, II, III, IV, read-out: t1/2α)?
Its half-life is 8.5 min.

And the Vd ([10]; rabbit, plasma, iv, 90 mg/kg, individual, in order Rabbit I, II, III, IV, read-out: √1)?
The Vd was 0.205 L/kg.
